Results on 18 compounds are retold here after PubChem BioAssay AID328 (DTP/NCI, 2004).

The test system of the assay is BDF1 mice, P388 leukemia ip, median survival T/C. The assay is described as follows: NCI In Vivo Anticancer Drug Screen. Data for tumor model P388 Leukemia (intraperitoneal) in B6D2F1 (BDF1) mice. As to conditions: endpoint: median survival time, higher = longer survival. In short, it runs like this: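 Survival ratio, drug arm over vehicle arm, in mice with a transplanted tumour.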

[1] abbreviates: dose: 100.0 mg/kg/injection, schedule: Q01DX009 (ip), vehicle: saline with Tween-80.
Where [2] appears, read: dose: 200.0 mg/kg/injection, schedule: Q01DX009 (ip), vehicle: saline with Tween-80.
[3] abbreviates: dose: 25.0 mg/kg/injection, schedule: Q01DX009 (ip), vehicle: Klucel (hydroxypropylcellulose) (HPC).
Setting [4] is: dose: 50.0 mg/kg/injection, schedule: Q01DX009 (ip), vehicle: Klucel (hydroxypropylcellulose) (HPC).
[5] abbreviates: dose: 100.0 mg/kg/injection, schedule: Q01DX009 (ip), vehicle: Klucel (hydroxypropylcellulose) (HPC).
Where [6] appears, read: dose: 100.0 mg/kg/injection, schedule: Q01DX001 (ip), vehicle: saline with Tween-80.
The mark [7] stands for this setting: dose: 200.0 mg/kg/injection, schedule: Q01DX001 (ip), vehicle: saline with Tween-80.
Where [8] appears, read: dose: 400.0 mg/kg/injection, schedule: Q01DX001 (ip), vehicle: saline with Tween-80.
Setting [9] is: dose: 100.0 mg/kg/injection, schedule: Q04DX003 (ip), vehicle: saline with Tween-80.
[10] abbreviates: dose: 200.0 mg/kg/injection, schedule: Q04DX003 (ip), vehicle: saline with Tween-80.
Setting [11] is: dose: 400.0 mg/kg/injection, schedule: Q01DX009 (ip), vehicle: saline with Tween-80.
Where [12] appears, read: dose: 400.0 mg/kg/injection, schedule: Q04DX003 (ip), vehicle: saline with Tween-80.

Structures are written as SMILES. Where “and” joins values, the source holds several entries; their conditions need not be identical. Identical values can stand only once. Toxic doses and inconclusive results are not listed.

Take `CC(=O)CSc1ncnc2nc[nH]c12`: the T/C by setting is: under setting [1], 109 % of control; under setting [2], 109 % of control.
`CSc1nc(Cl)c(Cl)c(C(F)(F)F)n1`: the T/C by setting is: (dose: 6.25 mg/kg/injection, schedule: Q01DX005 (ip), vehicle: saline) 110 % of control; (dose: 12.5 mg/kg/injection, schedule: Q01DX005 (ip), vehicle: saline) 109 % of control; (dose: 25.0 mg/kg/injection, schedule: Q01DX005 (ip), vehicle: saline) 115 % of control.
As for `C=C1C(=O)OC(/C=C(\C)CO)C1C(C/C(C)=C/CO)OC(=O)/C(C)=C\C` (stereo unspecified), the T/C (dose: 12.5 mg/kg/injection, schedule: Q01DX009 (ip), vehicle: Klucel (hydroxypropylcellulose) (HPC)) is 111 % of control; the T/C under setting [3] was 111 % of control; the T/C under setting [4] is 109 % of control; the T/C under setting [5] was 94 % of control; the T/C (dose: 200.0 mg/kg/injection, schedule: Q01DX009 (ip), vehicle: Klucel (hydroxypropylcellulose) (HPC)) is 94 % of control.
On to `CC(Cc1cccs1)N=Cc1cc(Br)ccc1O` (stereo unspecified), for which the T/C was 100 % of control under setting [6], 111 % of control under setting [7] and 109 % of control under setting [8].
In the case of `CNc1nc(N)c(N=O)c(Nc2ccc(Br)cc2)n1`, the T/C (dose: 62.5 mg/kg/injection, schedule: Q01DX010 (ip), vehicle: carboxymethylcellulose (CMC)) was 105 % of control; the T/C (dose: 125.0 mg/kg/injection, schedule: Q01DX010 (ip), vehicle: carboxymethylcellulose (CMC)) is 110 % of control; the T/C (dose: 250.0 mg/kg/injection, schedule: Q01DX010 (ip), vehicle: carboxymethylcellulose (CMC)) is 100 % of control; the T/C (dose: 500.0 mg/kg/injection, schedule: Q01DX010 (ip), vehicle: carboxymethylcellulose (CMC)) was 100 % of control.
With `COc1ccc(NC2=CC(C)(C(=O)O)OC2=O)cc1` (stereo unspecified), the T/C is 100 % of control under setting [1]; 100 % of control under setting [9]; 91 % of control under setting [2]; 110 % of control under setting [10]; 108 % of control under setting [11]; 115 % of control under setting [12].
With `C/C=C1\C(=O)O[C@@]23C=C[C@H]4C(C(=O)OC)=CO[C@@H](O[C@H]12)[C@H]43`, the T/C is, setting by setting: (dose: 0.75 mg/kg/injection, schedule: Q01DX009 (ip), vehicle: saline) 100 % of control; (dose: 2.5 mg/kg/injection, schedule: Q01DX009 (ip), vehicle: saline) 115 % of control; (dose: 165.0 micrograms/kg/injection, schedule: Q01DX009 (ip), vehicle: Klucel (hydroxypropylcellulose) (HPC)) 105 % of control; (dose: 620.0 micrograms/kg/injection, schedule: Q01DX009 (ip), vehicle: Klucel (hydroxypropylcellulose) (HPC)) 115 % of control; (dose: 1250.0 micrograms/kg/injection, schedule: Q01DX009 (ip), vehicle: Klucel (hydroxypropylcellulose) (HPC)) 105 % of control.
Take `COC1(F)C2(Cl)C=C(c3ccccc3)C1(Cl)C(Cl)=C2Cl` (stereo unspecified): the T/C is, setting by setting: (dose: 100.0 mg/kg/injection, schedule: Q04DX002 (ip), vehicle: saline with Tween-80) 101 % of control; (dose: 200.0 mg/kg/injection, schedule: Q04DX002 (ip), vehicle: saline with Tween-80) 111 % of control; (dose: 400.0 mg/kg/injection, schedule: Q04DX002 (ip), vehicle: saline with Tween-80) 100 % of control.
`COc1ccc(C2(C#N)CC2)cc1`: the T/C runs as follows: under setting [1], 95 % of control; under setting [9], 91 % of control; under setting [2], 100 % of control; under setting [10], 100 % of control; under setting [11], 104 % of control; under setting [12], 108 % of control.
For the compound `CCOc1ncc([N+](=O)[O-])c(OCC)n1`, the T/C is 101 % of control (dose: 50.0 mg/kg/injection, schedule: Q01DX009 (ip), vehicle: saline with Tween-80); 106 % of control under setting [1]; 108 % of control under setting [2]; 106 % of control under setting [11].
In the case of `O=C(Nc1cccc(Cl)c1)Oc1ccc2ccccc2c1`, the T/C by setting is: (dose: 100.0 mg/kg/injection, schedule: Q01DX001 (ip), vehicle: Klucel (hydroxypropylcellulose) (HPC)) 109 % of control; (dose: 200.0 mg/kg/injection, schedule: Q01DX001 (ip), vehicle: Klucel (hydroxypropylcellulose) (HPC)) 113 % of control; (dose: 400.0 mg/kg/injection, schedule: Q01DX001 (ip), vehicle: Klucel (hydroxypropylcellulose) (HPC)) 100 % of control.
Regarding `O=C(O)C1C2C=CC(C2)C1C(F)(F)C(F)(F)C(F)(F)F` (stereo unspecified), the T/C runs as follows: under setting [6], 100 % of control; under setting [7], 104 % of control; under setting [8], 118 % of control.
With `CN(C)c1ncnc2c1ncn2C1OC(CO)C(N)C1O` (stereo unspecified), the T/C was 95 % of control (dose: 14.0 mg/kg/injection, schedule: Q01DX009 (ip), vehicle: saline); 100 % of control (dose: 22.0 mg/kg/injection, schedule: Q01DX009 (ip), vehicle: saline); 150 % of control and 177 % of control (dose: 50.0 mg/kg/injection, schedule: Q01DX009 (ip), vehicle: saline).
Turning to `COc1ccc(Cc2ccc(O)cc2)cc1`, the T/C reads like this: (dose: 100.0 mg/kg/injection, schedule: Q04DX003 (ip), vehicle: other) 100 % of control; (dose: 200.0 mg/kg/injection, schedule: Q04DX003 (ip), vehicle: other) 119 % of control; (dose: 400.0 mg/kg/injection, schedule: Q04DX003 (ip), vehicle: other) 119 % of control.
As to `C=CCN(CC=C)P(=O)(N1CC1C)N1CC1C` (stereo unspecified), the T/C by setting is: (dose: 0.2 mg/kg/injection, schedule: Q01DX009 (ip), vehicle: saline) 101 % of control; (dose: 0.4 mg/kg/injection, schedule: Q01DX009 (ip), vehicle: saline) 106 % of control.
For the compound `O=C(CCBr)N1CCN(C(=O)CCBr)CC1`, the T/C was 109 % of control (dose: 10.0 mg/kg/injection, schedule: Q01DX010 (ip), vehicle: saline); 122 % of control (dose: 20.0 mg/kg/injection, schedule: Q01DX010 (ip), vehicle: saline); 181 % of control (dose: 40.0 mg/kg/injection, schedule: Q01DX010 (ip), vehicle: saline).
In the case of `N#Cc1ccccc1NN=Nc1ccccc1-c1nc(N)nc(N)n1`, the T/C by setting is: (dose: 12.0 mg/kg/injection, schedule: Q04DX003 (ip), vehicle: saline with Tween-80) 115 % of control; (dose: 12.0 mg/kg/injection, schedule: Q04DX003 (ip), vehicle: saline) 108 % of control; under setting [3], 100 % of control; (dose: 25.0 mg/kg/injection, schedule: Q04DX003 (ip), vehicle: Klucel (hydroxypropylcellulose) (HPC)) 104 % of control; (dose: 25.0 mg/kg/injection, schedule: Q04DX003 (ip), vehicle: saline with Tween-80) 105 % of control; (dose: 25.0 mg/kg/injection, schedule: Q04DX003 (ip), vehicle: saline) 112 % of control. Also, the T/C by setting is: (dose: 35.0 mg/kg/injection, schedule: Q01DX009 (ip), vehicle: Klucel (hydroxypropylcellulose) (HPC)) 100 % of control; (dose: 35.0 mg/kg/injection, schedule: Q04DX003 (ip), vehicle: Klucel (hydroxypropylcellulose) (HPC)) 95 % of control; under setting [4], 90 % of control; (dose: 50.0 mg/kg/injection, schedule: Q04DX003 (ip), vehicle: Klucel (hydroxypropylcellulose) (HPC)) 104 % of control; (dose: 50.0 mg/kg/injection, schedule: Q04DX003 (ip), vehicle: saline with Tween-80) 115 % of control; (dose: 50.0 mg/kg/injection, schedule: Q04DX003 (ip), vehicle: saline) 116 % of control. Besides, the T/C is 90 % of control and 95 % of control (dose: 75.0 mg/kg/injection, schedule: Q01DX009 (ip), vehicle: Klucel (hydroxypropylcellulose) (HPC)); 95 % of control (dose: 75.0 mg/kg/injection, schedule: Q04DX003 (ip), vehicle: Klucel (hydroxypropylcellulose) (HPC)); 122 % of control under setting [5].
For the compound `CN1C(c2ccc(Cl)cc2)OCC1(C)C` (stereo unspecified), the T/C reads like this: (dose: 50.0 mg/kg/injection, schedule: Q01DX001 (ip), vehicle: saline sonified) 100 % of control; (dose: 100.0 mg/kg/injection, schedule: Q01DX001 (ip), vehicle: saline sonified) 100 % of control; (dose: 200.0 mg/kg/injection, schedule: Q01DX001 (ip), vehicle: saline sonified) 100 % of control.
